Experimental findings from patent US11253524B2 (Gilead Sciences, Inc., priority 2018, dated 2022) are described below.

The target in one data set is T1, OATP1B3 (Homo sapiens, UniProt Q9NPD5).
T1 sequence (Q9NPD5 1-702): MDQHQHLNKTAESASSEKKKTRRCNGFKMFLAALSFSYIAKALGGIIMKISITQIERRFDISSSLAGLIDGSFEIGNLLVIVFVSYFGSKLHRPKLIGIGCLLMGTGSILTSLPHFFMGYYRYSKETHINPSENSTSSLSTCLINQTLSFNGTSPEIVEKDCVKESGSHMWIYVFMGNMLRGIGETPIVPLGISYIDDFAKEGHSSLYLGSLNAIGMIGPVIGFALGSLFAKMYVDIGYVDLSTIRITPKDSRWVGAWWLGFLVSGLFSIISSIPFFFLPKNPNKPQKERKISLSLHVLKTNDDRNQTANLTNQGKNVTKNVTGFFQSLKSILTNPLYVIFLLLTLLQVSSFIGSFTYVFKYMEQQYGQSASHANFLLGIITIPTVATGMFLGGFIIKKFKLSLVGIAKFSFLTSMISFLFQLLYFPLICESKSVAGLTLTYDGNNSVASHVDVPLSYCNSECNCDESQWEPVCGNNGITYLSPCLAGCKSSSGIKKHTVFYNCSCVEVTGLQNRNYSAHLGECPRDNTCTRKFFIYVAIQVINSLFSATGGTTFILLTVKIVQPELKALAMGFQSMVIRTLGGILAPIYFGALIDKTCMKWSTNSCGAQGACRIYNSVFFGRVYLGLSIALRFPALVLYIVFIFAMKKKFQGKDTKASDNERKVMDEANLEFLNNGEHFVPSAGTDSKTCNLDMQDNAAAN
Briefly: OATP1B3 inhibition assay using 3H-E217βG as probe substrate, HEK293FT cells. It is filed as cell-based. More on the design: expressed in transfected cells. On the procedure:
HEK293FT-Mock and OATP-transfected cells (1×10^5 cells each) were seeded 24 hr prior to assay. Pre-rinsed ells were incubated for 3 minutes with 1 μM ^3H-E217βG in HK buffer in the presence of various concentrations of test compound or positive control rifampicin. After the experiment cells were rinsed with Krebs-Henseleit buffer and lysed with 0.1 M NaOH. The amount of substrate inside the cells was determined by liquid scintillation reader.
(§1) Percent inhibition was calculated according to the following equation: % inhibition=[1−{[OATP]i−[WT]ni}/{[OATP]ni−[WT]ni}]*100 where: [OATP]i represent the substrate accumulation in the presence of test compound for either OATP1B1, OATP1B3, or OATP2B1 cells; [OATP]ni represents the substrate accumulation in the absence of test compound for either OATP1B1, OATP1B3, or OATP2B1 cells, respectively; and [WT]ni represents the substrate accumulation in the absence of test compound for wild type cells or Mock cells, respectively. IC50 Determination in Transporter Assays
(§2) IC50 was determined according to the procedures described in Example 5. […] Results are reported as NIO (no interaction observed).

Another data set addresses T2, OATP1B1 (Homo sapiens, UniProt Q9Y6L6).
T2 sequence (Q9Y6L6 1-691): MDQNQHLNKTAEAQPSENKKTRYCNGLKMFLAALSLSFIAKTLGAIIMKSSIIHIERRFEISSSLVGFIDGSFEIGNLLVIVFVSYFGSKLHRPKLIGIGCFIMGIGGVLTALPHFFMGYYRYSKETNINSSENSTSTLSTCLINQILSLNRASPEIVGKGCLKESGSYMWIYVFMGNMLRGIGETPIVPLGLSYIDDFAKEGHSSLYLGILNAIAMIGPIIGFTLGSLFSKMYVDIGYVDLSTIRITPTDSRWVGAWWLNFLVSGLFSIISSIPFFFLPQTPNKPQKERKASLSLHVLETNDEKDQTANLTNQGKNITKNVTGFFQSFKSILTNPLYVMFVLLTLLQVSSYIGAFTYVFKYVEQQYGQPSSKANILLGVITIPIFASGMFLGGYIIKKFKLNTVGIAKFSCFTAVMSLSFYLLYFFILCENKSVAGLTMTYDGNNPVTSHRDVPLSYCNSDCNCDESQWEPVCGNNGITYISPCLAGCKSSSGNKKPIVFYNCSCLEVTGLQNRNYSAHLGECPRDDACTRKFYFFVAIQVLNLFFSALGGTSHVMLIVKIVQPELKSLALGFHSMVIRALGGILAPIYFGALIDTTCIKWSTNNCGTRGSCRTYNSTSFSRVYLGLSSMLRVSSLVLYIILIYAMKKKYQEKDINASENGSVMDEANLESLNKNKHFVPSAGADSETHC
Put plainly: OATP1B1 inhibition assay using Fluo-3 as probe substrate, CHO cells. It is filed as cell-based. More on the design: expressed in transfected cells; host or cells: CHO cells. Conditions: for IC50: OATP1B1, Fluo-3; for inhibition at 1 h, 100 µM: human, CHO cells transfected with human OATP1B1, pH 7.4, probe Fluo-3 (2 μM), OATP1B1, Fluo-3, at 100 μM, read-out: Maximum inhibition at highest test conc. (% of control). Here is the method:
Chinese Hamster Ovary (CHO) cells, either wild type or transfected with the genes encoding human OATP1B1 or OATP1B3, were maintained in Dulbecco's Modification of Eagle's Medium (DMEM) containing 1,000 mg/L D-glucose, L-glutamine, 25 mM HEPES buffer, and 110 mg/L sodium pyruvate, 1% Pen/Strep, 10% fetal bovine serum, 0.05 mg/mL L-proline and 0.5 mg/mL of geneticin G-418. Cells were maintained in incubators set at 37° C., 90% humidity and 5% CO2. OATP1B1 or OATP1B3 overexpressing CHO cells were seeded in BioCoat Poly-D-Lysine coated 96 well black cell culture plates with clear bottoms at a density of 1×10^5 cells/well. Sodium butyrate (10 mM) was added to the OATP1B1 and OATP1B3 cells to increase the protein expression level, and the cells were grown to confluence overnight. The assay buffer contained 142 mM NaCl, 5 mM KCl, 1 mM KH2PO4, 1.2 mM MgSO4, 1.5 mM CaCl2, 5 mM Glucose and 12.5 mM HEPES (pH 7.4). After removal of the media and before adding test compounds, the cells were washed twice with 37° C. assay buffer followed by a 0.5 h pre-incubation with assay buffer. Test compounds were serially diluted in DMSO at 250-fold of final test concentrations to create the compound spiking solutions. Compounds were then spiked into assay buffer containing 2 μM Fluo-3 and incubated with cells for 1 h. Following removal of assay buffer containing Fluo-3 and test compound, cells were washed 3 times with 200 μl of ice cold assay buffer and then lysed at room temperature for 15 minutes in a lysis buffer containing […] in a 1 mM CaCl2 solution. Substrate accumulations were determined for Fluo-3 fluorescence at an excitation of 485 nm and emission of 530 nm.
as §1, §2

Molecules are shown by their SMILES. Where only a bound is given, the exact number is not on record here.

Take `O=C(NCc1c(F)cc(F)cc1F)c1cn2c(c(O)c1=O)C(=O)N1[C@H]3CC[C@H](C3)O[C@@H]1C2` [BIC, bictegravir, reference compound]: the “IC50 (μM)” value against OATP1B3 (NIO = no interaction observed) is recorded as “NIO”.
By IC50 is commonly meant the concentration that inhibits the measured activity by half. Lower therefore signals greater potency. What is called inhibition is the change of the read-out against control, counted positive when it falls. Consider `O=C(NCc1c(F)cc(F)cc1F)c1cn2c(c(O[C@@H]3O[C@H](C(=O)O)[C@@H](O)[C@H](O)[C@H]3O)c1=O)C(=O)N1[C@H]3CC[C@H](C3)O[C@@H]1C2` [Metabolite M15], for which, at OATP1B1, the IC50 was greater than 100 µM and the inhibition at 1 h, 100 µM came to 39%.
Regarding `O=C(NCc1c(F)cc(F)c(OS(=O)(=O)O)c1F)c1cn2c(c(O)c1=O)C(=O)N1C(C2)O[C@@H]2CC[C@H]1C2` (stereo partly drawn) [Metabolite M20], on OATP1B1, inhibition was half-maximal at 90.1 µM (IC50) and the inhibition at 1 h, 100 µM amounted to 54%. For the same molecule, the IC50 against OATP1B3 (NIO = no interaction observed) is greater than 100 µM. The inhibition at 3 min, 100 µM on OATP1B3 (human, HEK293FT cells transfected with OATP1B3, probe 3H-E217βG (1 μM), at 100 μM, read-out: Maximum inhibition at highest test conc. (% of control)) came to 49%.
`O=C(NCc1c(F)cc(F)c(O)c1F)c1cn2c(c(O)c1=O)C(=O)N1[C@H]3CC[C@H](C3)O[C@@H]1C2` [Metabolite M23]: at OATP1B1, the IC50 was 99.9 µM and the inhibition at 1 h, 100 µM is 51%.
